{"source": "ChEMBL document CHEMBL1201862", "about": "“PubChem BioAssay data set” (2004)", "key": {"[1]": {"target": "Paired box protein Pax-8 (Homo sapiens, UniProt Q06710)", "sequence (Q06710 whole entry)": "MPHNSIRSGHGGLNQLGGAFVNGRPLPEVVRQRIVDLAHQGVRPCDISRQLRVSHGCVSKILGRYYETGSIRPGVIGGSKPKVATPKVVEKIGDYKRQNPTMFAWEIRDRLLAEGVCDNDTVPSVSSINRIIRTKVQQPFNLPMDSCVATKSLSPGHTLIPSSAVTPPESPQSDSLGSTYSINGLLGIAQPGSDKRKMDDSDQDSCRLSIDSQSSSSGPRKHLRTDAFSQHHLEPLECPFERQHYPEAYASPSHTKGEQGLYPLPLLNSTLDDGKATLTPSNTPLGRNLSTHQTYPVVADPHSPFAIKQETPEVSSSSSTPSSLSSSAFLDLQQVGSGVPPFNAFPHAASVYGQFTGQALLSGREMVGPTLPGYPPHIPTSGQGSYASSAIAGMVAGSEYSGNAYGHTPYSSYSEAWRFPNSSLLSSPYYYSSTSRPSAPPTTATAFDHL", "assay": "inhibitors of PAX8-driven TPO luciferase reporter, dose response, RMG-I cells, cherry-pick (AID 687027);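 also: luciferase reporter driven by Pax8 target thyroperoxidase promoter measured by SteadyGlo luminescence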", "format": "functional, cell-based"}, "[2]": {"assay": "NIH:OVCAR-3 ovarian cancer cell cytotoxicity, dose response, PAX8 inhibitor project, plate reader, dry powder samples (AID 743044)", "format": "functional, cell-based"}, "[3]": {"assay": "cytotoxicity in OVCAR8 ovarian cancer cells, dose response, PAX8 project, cell-based, plate reader, dry powder samples (AID 743197)", "format": "functional", "conditions": "OVCAR-8"}, "[4]": {"assay": "A2780 ovarian cancer cell cytotoxicity, dose response, cytotoxicity control, plate reader, dry powder samples (AID 743046)", "format": "functional, cell-based"}, "[5]": {"target": "Genome polyprotein (dengue virus type 2, UniProt P29990)", "sequence (P29990 2492-3391 limits assumed)": "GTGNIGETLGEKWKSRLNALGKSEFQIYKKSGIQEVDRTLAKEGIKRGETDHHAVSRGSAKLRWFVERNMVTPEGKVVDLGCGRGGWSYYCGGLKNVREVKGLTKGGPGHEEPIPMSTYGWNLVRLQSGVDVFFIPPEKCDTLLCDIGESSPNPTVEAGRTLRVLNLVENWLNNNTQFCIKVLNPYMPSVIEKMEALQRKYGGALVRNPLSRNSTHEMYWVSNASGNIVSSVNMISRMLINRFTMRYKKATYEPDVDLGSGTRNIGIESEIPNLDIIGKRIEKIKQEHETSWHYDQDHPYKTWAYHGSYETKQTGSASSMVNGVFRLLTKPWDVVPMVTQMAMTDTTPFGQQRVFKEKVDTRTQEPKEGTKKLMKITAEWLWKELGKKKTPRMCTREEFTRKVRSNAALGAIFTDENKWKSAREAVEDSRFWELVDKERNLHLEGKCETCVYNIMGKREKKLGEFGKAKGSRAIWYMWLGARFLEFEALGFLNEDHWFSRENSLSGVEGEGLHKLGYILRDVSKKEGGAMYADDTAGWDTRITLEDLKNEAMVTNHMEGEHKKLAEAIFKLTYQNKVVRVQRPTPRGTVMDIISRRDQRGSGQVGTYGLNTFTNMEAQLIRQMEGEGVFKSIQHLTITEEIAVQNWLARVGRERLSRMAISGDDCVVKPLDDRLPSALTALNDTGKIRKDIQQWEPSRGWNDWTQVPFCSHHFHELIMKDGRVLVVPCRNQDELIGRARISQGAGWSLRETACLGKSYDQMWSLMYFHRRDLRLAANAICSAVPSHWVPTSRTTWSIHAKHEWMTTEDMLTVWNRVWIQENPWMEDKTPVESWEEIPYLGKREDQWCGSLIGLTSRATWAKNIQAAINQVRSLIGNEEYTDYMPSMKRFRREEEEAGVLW", "assay": "Dengue-2 NS5 methyltransferase inhibitors, primary screen, biochemical, confirmation dose response (AID 588689)", "format": "functional"}, "[6]": {"assay": "cytotoxicity in HEK-293T cells, dose response, cytotoxicity control for BCR NF-kB inhibitor project, luminescence, B-cell screen hits (AID 489021);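 also: cells exposed to compound for about 14 hours before viability readout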", "format": "functional, cell-based"}, "[7]": {"target": "E3 ubiquitin-protein ligase Mdm2 (Homo sapiens, UniProt Q00987)", "sequence (Q00987 whole entry)": "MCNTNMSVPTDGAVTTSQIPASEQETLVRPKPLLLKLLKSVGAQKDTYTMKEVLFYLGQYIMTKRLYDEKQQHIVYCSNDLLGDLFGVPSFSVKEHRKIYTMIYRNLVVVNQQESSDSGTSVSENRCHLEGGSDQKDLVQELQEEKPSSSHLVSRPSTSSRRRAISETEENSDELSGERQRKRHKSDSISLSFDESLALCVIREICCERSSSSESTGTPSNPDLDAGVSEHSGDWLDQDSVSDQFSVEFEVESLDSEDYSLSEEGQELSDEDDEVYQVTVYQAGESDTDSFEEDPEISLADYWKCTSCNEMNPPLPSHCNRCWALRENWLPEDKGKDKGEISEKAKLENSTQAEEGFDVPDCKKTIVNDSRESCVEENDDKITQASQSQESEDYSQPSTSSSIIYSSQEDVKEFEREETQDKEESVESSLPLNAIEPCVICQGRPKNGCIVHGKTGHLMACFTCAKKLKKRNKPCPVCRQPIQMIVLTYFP", "assay": "enhancers of MDM2-luciferase reporter signal, concentration-effect titration, project on inhibitors of MDM2 ubiquitin ligase, cellular assay, luminescent readout, 384-well plate format (AID 1394);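 also: MDM2 E3 inhibitors raise luminescence so EC50 is for signal enhancement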", "format": "functional"}, "[8]": {"target": "DNA dC->dU-editing enzyme APOBEC-3G (Homo sapiens, UniProt Q9HC16)", "sequence (Q9HC16 whole entry)": "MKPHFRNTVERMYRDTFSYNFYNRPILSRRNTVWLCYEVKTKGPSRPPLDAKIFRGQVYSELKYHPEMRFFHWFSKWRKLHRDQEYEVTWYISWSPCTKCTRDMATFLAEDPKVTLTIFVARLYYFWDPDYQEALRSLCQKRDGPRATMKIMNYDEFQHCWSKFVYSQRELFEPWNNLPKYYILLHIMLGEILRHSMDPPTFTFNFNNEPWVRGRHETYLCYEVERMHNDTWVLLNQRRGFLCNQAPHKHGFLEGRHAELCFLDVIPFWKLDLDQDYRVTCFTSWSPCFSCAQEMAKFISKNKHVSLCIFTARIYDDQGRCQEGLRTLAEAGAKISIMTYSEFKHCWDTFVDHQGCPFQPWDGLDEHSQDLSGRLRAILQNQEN", "assay": "Dose Response confirmation of small molecule APOBEC3G DNA Deaminase Inhibitors via a fluorescence-based single-stranded DNA deaminase assay. [Related pubchem assays (depositor defined):AID493012, AID493028]", "format": "functional"}, "[9]": {"target": "Mitogen-activated protein kinase 10 (Homo sapiens, UniProt P53779)", "sequence (P53779 whole entry)": "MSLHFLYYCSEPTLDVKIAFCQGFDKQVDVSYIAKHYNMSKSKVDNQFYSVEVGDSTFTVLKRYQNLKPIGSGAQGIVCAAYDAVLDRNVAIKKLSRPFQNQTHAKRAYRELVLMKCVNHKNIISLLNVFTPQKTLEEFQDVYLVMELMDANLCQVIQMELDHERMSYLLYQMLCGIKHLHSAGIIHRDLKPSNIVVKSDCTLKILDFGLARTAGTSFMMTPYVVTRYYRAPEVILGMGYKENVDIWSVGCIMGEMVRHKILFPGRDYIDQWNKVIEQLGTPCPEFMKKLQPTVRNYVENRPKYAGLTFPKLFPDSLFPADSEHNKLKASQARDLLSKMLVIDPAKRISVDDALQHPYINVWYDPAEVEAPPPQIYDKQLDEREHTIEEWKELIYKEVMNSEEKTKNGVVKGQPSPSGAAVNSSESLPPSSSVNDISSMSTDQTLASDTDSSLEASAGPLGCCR", "assay": "Dose response biochemical screening assay for inhibitors of c-Jun N-Terminal Kinase 3 (JNK3). [Related pubchem assays: 746 ]"}, "[10]": {"assay": "P. falciparum Dd2 growth inhibitors, dose response, SYBR Green, dry powder samples (AID 1159566);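 also: potency for growth inhibition with lower SYBR green DNA signal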", "format": "functional, cell-based"}, "[11]": {"assay": "P. falciparum ATP4 D1247Y mutant growth inhibitors, dose response, NITD609-resistant line, SYBR Green, dry powder (AID 1159571);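 also: parasites synchronized at ring stage by sorbitol before testing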", "format": "functional, cell-based"}, "[12]": {"assay": "P. falciparum 3D7-ScDHODH growth inhibitors, dose response, SYBR Green, dry powder samples (AID 1159570);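 also: parasite growth measured after 72 hours of compound exposure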", "format": "functional, cell-based"}, "[13]": {"assay": "HepG2 cell cytotoxicity, dose response, cytotoxicity control, plate reader, dry powder samples (AID 1159569);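 also: inhibitor potency with signal falling toward the positive control level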", "format": "functional, cell-based"}, "[14]": {"assay": "P. falciparum Dd2 growth inhibitors, dose response, SYBR Green, cherry-picked samples (AID 1159567)", "format": "functional, cell-based"}, "[15]": {"target": "T1, Estrogen receptor (Homo sapiens, UniProt P03372)", "T1 sequence (P03372 whole entry)": "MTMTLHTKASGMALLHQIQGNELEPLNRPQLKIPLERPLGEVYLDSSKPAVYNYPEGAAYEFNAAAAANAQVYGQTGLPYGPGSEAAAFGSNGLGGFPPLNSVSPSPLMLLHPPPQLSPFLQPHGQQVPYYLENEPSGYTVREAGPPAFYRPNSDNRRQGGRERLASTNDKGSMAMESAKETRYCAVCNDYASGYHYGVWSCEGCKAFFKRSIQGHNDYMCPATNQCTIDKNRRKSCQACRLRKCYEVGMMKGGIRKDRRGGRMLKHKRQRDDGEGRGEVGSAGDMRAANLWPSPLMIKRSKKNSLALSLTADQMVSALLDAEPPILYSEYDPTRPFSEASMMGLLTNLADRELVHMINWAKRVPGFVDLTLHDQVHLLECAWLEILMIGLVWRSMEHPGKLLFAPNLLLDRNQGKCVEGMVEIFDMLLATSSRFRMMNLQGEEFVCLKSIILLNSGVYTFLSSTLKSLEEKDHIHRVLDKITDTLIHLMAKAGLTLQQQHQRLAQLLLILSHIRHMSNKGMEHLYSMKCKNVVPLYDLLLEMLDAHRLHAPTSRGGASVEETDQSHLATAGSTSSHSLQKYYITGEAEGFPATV"}, "[16]": {"target": "Cytochrome P450 2C19 (Homo sapiens, UniProt P33261)", "assay": "Cytochrome panel assay with activity outcomes. Panel member name: p450-cyp2c19 Compounds with AC50 equal or less than 10 uM are considered active", "format": "functional", "conditions": "read-out: AC50"}, "[17]": {"target": "Voltage-dependent T-type calcium channel subunit alpha-1H (Homo sapiens, UniProt O95180)", "sequence (O95180 whole entry)": "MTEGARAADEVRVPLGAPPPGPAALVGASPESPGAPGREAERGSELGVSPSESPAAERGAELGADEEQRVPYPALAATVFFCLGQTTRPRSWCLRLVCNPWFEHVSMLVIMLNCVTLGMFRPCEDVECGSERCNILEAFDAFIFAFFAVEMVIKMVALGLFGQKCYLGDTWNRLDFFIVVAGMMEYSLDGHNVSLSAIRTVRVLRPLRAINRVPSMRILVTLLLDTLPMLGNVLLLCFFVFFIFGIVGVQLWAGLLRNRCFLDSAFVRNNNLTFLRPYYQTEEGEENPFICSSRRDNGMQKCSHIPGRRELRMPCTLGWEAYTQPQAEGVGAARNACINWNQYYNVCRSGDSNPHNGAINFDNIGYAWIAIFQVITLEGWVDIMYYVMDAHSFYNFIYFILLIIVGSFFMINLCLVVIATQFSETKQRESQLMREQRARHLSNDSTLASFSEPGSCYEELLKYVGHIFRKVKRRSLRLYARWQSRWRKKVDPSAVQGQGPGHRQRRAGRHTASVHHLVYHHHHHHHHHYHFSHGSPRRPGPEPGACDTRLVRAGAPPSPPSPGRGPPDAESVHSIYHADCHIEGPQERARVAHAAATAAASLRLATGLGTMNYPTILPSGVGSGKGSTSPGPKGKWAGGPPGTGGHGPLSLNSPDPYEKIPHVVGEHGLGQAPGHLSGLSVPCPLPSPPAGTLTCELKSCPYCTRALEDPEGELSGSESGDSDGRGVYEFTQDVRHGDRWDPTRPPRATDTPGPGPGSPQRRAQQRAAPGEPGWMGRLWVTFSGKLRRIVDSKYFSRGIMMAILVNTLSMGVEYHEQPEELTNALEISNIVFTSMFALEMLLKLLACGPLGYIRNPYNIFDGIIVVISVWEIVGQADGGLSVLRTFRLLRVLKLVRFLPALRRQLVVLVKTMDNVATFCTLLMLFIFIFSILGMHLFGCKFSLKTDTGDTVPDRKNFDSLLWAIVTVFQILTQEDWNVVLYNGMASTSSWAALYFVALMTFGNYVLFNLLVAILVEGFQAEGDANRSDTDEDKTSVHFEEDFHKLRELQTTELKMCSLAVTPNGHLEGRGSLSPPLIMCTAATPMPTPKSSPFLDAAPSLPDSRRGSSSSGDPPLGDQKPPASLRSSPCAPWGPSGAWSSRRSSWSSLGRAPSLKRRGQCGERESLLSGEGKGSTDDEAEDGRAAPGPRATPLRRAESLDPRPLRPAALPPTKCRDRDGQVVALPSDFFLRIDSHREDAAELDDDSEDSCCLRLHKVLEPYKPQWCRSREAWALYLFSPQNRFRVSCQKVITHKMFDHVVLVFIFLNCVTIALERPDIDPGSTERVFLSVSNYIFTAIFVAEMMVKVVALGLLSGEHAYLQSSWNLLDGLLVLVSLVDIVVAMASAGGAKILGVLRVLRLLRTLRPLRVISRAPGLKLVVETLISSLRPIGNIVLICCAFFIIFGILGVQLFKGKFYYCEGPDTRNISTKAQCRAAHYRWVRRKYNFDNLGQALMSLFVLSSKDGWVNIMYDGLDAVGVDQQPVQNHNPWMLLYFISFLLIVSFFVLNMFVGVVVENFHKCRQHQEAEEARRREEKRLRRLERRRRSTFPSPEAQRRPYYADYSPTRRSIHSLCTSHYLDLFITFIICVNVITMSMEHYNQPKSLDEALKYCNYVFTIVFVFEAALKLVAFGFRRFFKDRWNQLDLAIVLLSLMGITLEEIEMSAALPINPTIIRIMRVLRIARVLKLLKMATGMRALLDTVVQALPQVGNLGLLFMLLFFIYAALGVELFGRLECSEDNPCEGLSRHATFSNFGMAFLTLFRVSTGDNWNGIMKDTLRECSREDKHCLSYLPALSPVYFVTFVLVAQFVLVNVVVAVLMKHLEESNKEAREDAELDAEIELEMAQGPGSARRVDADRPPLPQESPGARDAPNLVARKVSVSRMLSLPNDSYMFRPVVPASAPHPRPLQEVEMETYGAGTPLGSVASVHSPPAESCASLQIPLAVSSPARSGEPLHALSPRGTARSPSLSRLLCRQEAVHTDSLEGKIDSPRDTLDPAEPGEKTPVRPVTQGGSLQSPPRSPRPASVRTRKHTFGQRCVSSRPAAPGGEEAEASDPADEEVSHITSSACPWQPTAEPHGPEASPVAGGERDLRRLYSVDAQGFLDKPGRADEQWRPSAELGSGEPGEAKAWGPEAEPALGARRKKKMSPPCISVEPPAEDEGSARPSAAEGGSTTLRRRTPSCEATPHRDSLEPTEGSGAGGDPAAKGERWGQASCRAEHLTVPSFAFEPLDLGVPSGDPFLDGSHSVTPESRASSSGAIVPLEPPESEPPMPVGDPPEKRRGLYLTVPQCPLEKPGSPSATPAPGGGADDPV", "format": "functional"}, "[18]": {"assay": "inhibitors of PGC1a acetylation in cells, dose response, cell-based, cherry-picked samples (AID 720514);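 also: potency may reflect raised or lowered acetylation signal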", "format": "functional"}, "[19]": {"target": "T2, Endoribonuclease toxin MazF (Escherichia coli K-12, UniProt P0AE70)", "T2 sequence (P0AE70 whole entry)": "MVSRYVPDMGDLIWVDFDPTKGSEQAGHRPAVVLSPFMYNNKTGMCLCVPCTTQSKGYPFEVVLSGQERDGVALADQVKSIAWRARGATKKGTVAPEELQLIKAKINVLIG", "assay": "MazF toxin RNase activators, dose response, biochemical, fluorescence, single-stranded RNA substrate, uHTS hits (AID 588481)", "format": "functional"}, "[20]": {"target": "T2, Endoribonuclease toxin MazF", "assay": "fluorescent RNA oligo signal without MazF, dose response, counter-screen for MazEF activator project, biochemical, fluorescence, single-stranded RNase substrate (AID 588502)", "format": "functional"}, "[21]": {"system": "BJ", "assay": "cytotoxicity toward BJ-TERT fibroblasts, dose response, cell-based, RAS-independent, luminescence (AID 1933)", "format": "functional", "conditions": "Homo sapiens"}, "[22]": {"system": "BJ", "assay": "cells", "format": "functional, cell-based", "conditions": "Homo sapiens"}}, "note": "Activity calls are given as the source filed them."}
{"smiles": "COc1ccc(S(=O)(=O)Nc2ccc3c(c2)C(=O)N([C@@H](C)CO)C[C@H](C)[C@@H](CN(C)Cc2ccc(C(F)(F)F)cc2)OCCCC[C@@H](C)O3)cc1", "values": [{"measurement": "AC50", "setting": "[1]", "result": "9.62 µM (active)"}, {"measurement": "AC50", "setting": "[2]", "result": "23 µM (active)"}, {"measurement": "AC50", "setting": "[3]", "result": "23.6 µM (active)"}, {"measurement": "AC50", "setting": "[4]", "result": "56.2 µM (active)"}]}
{"smiles": "O=C(O)c1ccc2c(c1)C(=O)N(c1ccc(/C=C/C(=O)c3ccccc3)cc1)C2=O", "values": [{"measurement": "IC50", "setting": "[5]", "result": "56.7 µM (active)"}]}
{"smiles": "CC1(c2nnc(-c3cccc(Cl)c3)o2)CC(c2cccc(Cl)c2)=NO1", "note": "(stereo not drawn)", "values": [{"measurement": "IC50", "setting": "[6]", "result": "> 80 µM (inactive)"}]}
{"smiles": "CC(C)=C1SC(N2CCN(c3cccc(C(F)(F)F)c3)CC2)=NC1=O", "values": [{"measurement": "EC50", "setting": "[7]", "result": "18.7 µM (not active)"}]}
{"smiles": "CCOc1ccc(C(S)=NC2CCCCC2)cc1OC", "values": [{"measurement": "IC50", "setting": "[8]", "result": "64.7 µM (active)"}]}
{"smiles": "CCOc1ccc(C2CC(=O)NC3=C2C(=O)CCC3)cc1", "note": "(stereo not drawn)", "values": [{"measurement": "IC50", "setting": "[9]", "result": "> 93.1 µM (not active)"}]}
{"smiles": "CN(C)C(=O)c1ccc(-c2ccc([C@@H]3[C@@H]4CN(Cc5ccc6c(c5)OCO6)C[C@H]3N4)cc2)cc1", "values": [{"measurement": "AC50", "setting": "[10]", "result": "2.25 µM (active)"}, {"measurement": "AC50", "setting": "[11]", "result": "2.58 µM (active)"}, {"measurement": "AC50", "setting": "[12]", "result": "4.61 µM (active)"}, {"measurement": "AC50", "setting": "[13]", "result": "22.6 µM (active)"}, {"measurement": "AC50", "setting": "[14]", "result": "1.13 µM (active)"}]}
{"smiles": "C=CCNc1nc(-c2cccc(OC)c2O)nc2ccccc12", "values": [{"measurement": "IC50", "setting": "[15]", "result": "> 50 µM (not active)"}]}
{"smiles": "CC(NC(=O)CCSc1nc(-c2ccc3c(c2)OCO3)cc(C(F)(F)F)n1)c1ccccc1", "note": "(stereo not drawn)", "values": [{"measurement": "AC50", "setting": "[16]", "result": "0.398 µM (inconclusive)"}, {"measurement": "IC50", "setting": "[15]", "result": "> 50 µM (not active)"}, {"measurement": "EC50", "setting": "[17]", "result": "7.03 µM (active)"}]}
{"smiles": "CCCN1Cc2cccc(C(=O)NCc3ccc4c(c3)OCO4)c2C1=O", "values": [{"measurement": "IC50", "setting": "[9]", "result": "31.8 µM (not active)"}]}
{"smiles": "O=C(c1ccc(F)cc1)N(C(=O)c1ccc(F)cc1)c1ncccn1", "values": [{"measurement": "AC50", "setting": "[18]", "result": "25.9 µM (active)"}]}
{"smiles": "C#CCOc1c(Br)cc(/C=C2/C(=O)ON=C2C)cc1OC", "values": [{"measurement": "IC50", "setting": "[5]", "result": "> 100 µM (active)"}]}
{"smiles": "CCc1cccc(CC)c1NC(=O)COC(=O)/C(C#N)=C/c1ccc(OC)cc1", "values": [{"measurement": "EC50", "setting": "[19]", "result": "> 99 µM (inactive)"}, {"measurement": "EC50", "setting": "[20]", "result": "> 99 µM (inactive)"}]}
{"smiles": "CCOC(=O)c1c(NC(=O)Nc2ccc(C)cc2)sc2c1CCN(C)C2", "values": [{"measurement": "EC50", "setting": "[19]", "result": "> 99 µM (inactive)"}, {"measurement": "EC50", "setting": "[20]", "result": "> 99 µM (inactive)"}]}
{"smiles": "COc1ccc2c3c(n(C)c2c1)[C@H](CO)N(C(=O)Nc1ccc(F)cc1)CC31CCN(Cc2cccnc2)CC1", "values": [{"measurement": "AC50", "setting": "[10]", "result": "1.61 µM (active)"}, {"measurement": "AC50", "setting": "[11]", "result": "2.03 µM (active)"}, {"measurement": "AC50", "setting": "[12]", "result": "1.52 µM (active)"}, {"measurement": "AC50", "setting": "[13]", "result": "> 100 µM (inactive)"}, {"measurement": "AC50", "setting": "[14]", "result": "3.02 µM (active)"}]}
{"smiles": "Cn1c(=O)cc(OCC(=O)N2CCC3(CC2)OCCO3)c2ccccc21", "values": [{"measurement": "IC50", "setting": "[6]", "result": "> 80 µM (inactive)"}]}
{"smiles": "Cc1ccc(Nc2nc(N)nc(-c3oc4ccccc4c3C)n2)cc1", "values": [{"measurement": "EC50", "setting": "[21]", "result": "< 0.12 µM (active)"}, {"measurement": "EC50", "setting": "[22]", "result": "0.228 µM (active)"}]}
